Results: patent publication US9365590B2, “Selenophene-fused aromatic compound and manufacturing method thereof” (Industry-Academia Cooperation Group of Sejong University, priority 2011, dated 2016)

Tested on: SK-OV-3 cancer cells
Assay: SK-OV-3 cancer cell proliferation inhibition (WST-1 assay)
Format: cell-based
Details: Homo sapiens, SK-OV-3, 72 h, read-out: Proliferation inhibition effect (10 nM; %)
Protocol: Meanwhile, in the present Example, proliferation inhibition effect of the compound in accordance with Comparative Example 1 and the compounds corresponding to Entry 59 to Entry 72 on SK-OV-3 cancer cells were checked, and a result thereof was as shown in [Table 5].
<Experiment Method of Proliferation Inhibition Effect>
SK-OV-3 cells floated on McCoy's 5A Medium in which 10% FBS and 1% P/S were added were inoculated into a 96-Well plate at a concentration of 3×10^4/100 μl per Well and cultured at 37° C. for 4 hours and then, treated with 100 μl of each compound, so that a final concentration of 10 nM was attained. Then, the cells were cultured at 37° C. for 72 hours. As a control, the cells were treated with DMSO as a solvent of the compounds to attain a final concentration of 0.1%. Each well was treated with 10 μl of a WST-1 assay reagent (iTSBio, Korea), and cultured at 37° C. for 2 hours. Then, absorbance was measured with an automatic Microplate Reader at 450 nm. A cell growth inhibition level was calculated by {(A450control−A450compound)/A450control}*100.

Q: For `COc1ccc2c(O)cc3c(c2c1)[C@H](CCl)CN3C(=O)c1cc2cc(OC)c(OC)c(OC)c2[nH]1` [Comparative Example 1, seco-MCBI-TMI, reference compound], which inhibition at 0.01 µM is on record?
A: The inhibition at 0.01 µM was 80%.

Q: With `COc1ccc2c(O)cc3c(c2c1)[C@H](CCl)CN3C(=O)c1cc2cc(OC)c(OC)cc2[se]1` [Entry 67] as the molecule, how does the inhibition at 0.01 µM read?
A: Its inhibition at 0.01 µM is 78%.

Q: Which inhibition at 0.01 µM does the source give for `COc1ccc2c(O)cc3c(c2c1)[C@H](CCl)CN3C(=O)c1cc2cc([N+](=O)[O-])ccc2[se]1` [Entry 59, seco-MCBI-Nitro-Selenophene] here?
A: Its inhibition at 0.01 µM is 74%.

Q: Which inhibition at 0.01 µM does the source give for `COc1ccc2c(c1)C13CC1CN(C(=O)c1cc4cc(NC(C)=O)ccc4[se]1)C3=CC2=O` (stereo not drawn) [Entry 62] here?
A: Its inhibition at 0.01 µM is 86%.

Q: Which inhibition at 0.01 µM does the source give for `COc1ccc2c(O)cc3c(c2c1)[C@H](CCl)CN3C(=O)c1cc2sccc2[se]1` [Entry 63] here?
A: The inhibition at 0.01 µM was 78%.

Q: With `COc1ccc2c(O)cc3c(c2c1)[C@H](CCl)CN3C(=O)c1cc2cccnc2[se]1` [Entry 68] as the molecule, how does the inhibition at 0.01 µM read?
A: Its inhibition at 0.01 µM is 82%.

Q: Which inhibition at 0.01 µM does the source give for `CCCC(=O)Nc1ccc2[se]c(C(=O)N3C[C@@H](CCl)c4c3cc(O)c3ccccc43)cc2c1` [Entry 71] here?
A: Its inhibition at 0.01 µM is 73%.

Q: For `CCCC(=O)Nc1ccc2[se]c(C(=O)N3C[C@H]4C[C@@]45C3=CC(=O)c3ccccc35)cc2c1` [Entry 72], which inhibition at 0.01 µM is on record?
A: The inhibition at 0.01 µM was 75%.

Q: For `COc1ccc2cc(C(=O)N3C[C@@H](CCl)c4c3cc(O)c3ccc(OC)cc43)[se]c2c1` [Entry 64], which inhibition at 0.01 µM is on record?
A: Its inhibition at 0.01 µM is 85%.

Q: For `COc1ccc2c(O)cc3c(c2c1)[C@H](CCl)CN3C(=O)c1cc2occc2[se]1` [Entry 69], which inhibition at 0.01 µM is on record?
A: The inhibition at 0.01 µM was 73%.

Q: Which inhibition at 0.01 µM does the source give for `COc1ccc2c(O)cc3c(c2c1)[C@H](CCl)CN3C(=O)c1cc2cc(NC(C)=O)ccc2[se]1` [Entry 61, seco-MCBI-Acetamino-Selenophene] here?
A: The inhibition at 0.01 µM was 81%.

Q: With `COc1ccc2[se]c(C(=O)N3C[C@@H](CCl)c4c3cc(O)c3ccc(OC)cc43)cc2c1` [Entry 60, seco-MCBI-Methoxy-Selenophene] as the molecule, how does the inhibition at 0.01 µM read?
A: The inhibition at 0.01 µM was 78%.

Q: With `CCCCCC(=O)Nc1ccc2[se]c(C(=O)N3C[C@@H](CCl)c4c3cc(O)c3ccc(OC)cc43)cc2c1` [Entry 66] as the molecule, how does the inhibition at 0.01 µM read?
A: Its inhibition at 0.01 µM is 87%.

Same assay, conditions: Homo sapiens; SK-OV-3 cells, final concentration of 10 nM, cultured 72 hours, WST-1, absorbance 450 nm, vs DMSO control; read-out: Proliferation inhibition effect (10 nM; %)

Q: With `COc1cc2cc(C(=O)N3C[C@@H](CCl)c4c3cc(O)c3ccccc43)[nH]c2c(OC)c1OC` [Entry 70, CBI-TMI, reference compound] as the molecule, how does the inhibition at 0.01 µM read?
A: The inhibition at 0.01 µM was 80%.

Tested on: not given
Assay: not given
Details: not given

Q: With `CCOC(=O)c1cc2cc(N)ccc2[se]1` as the molecule, how does the melting point read?
A: Its melting point is 78 to 80 °C.
